Tests used:
Format in all cases: cell-based
HIV-1 (strain LAV-1) = experiment: Inhibition of HIV-1 replication in human PBMC (supernatant RT activity); conditions: Human immunodeficiency virus 1, PBMC; light/dark not stated; read-out: Antiviral Effect: EC50 HIV-1
Method: Cells: Human peripheral blood mononuclear cells (PBMC) from healthy HIV-1 seronegative and hepatitis B virus seronegative donors were isolated by Ficoll-Hypaque discontinuous gradient centrifugation at 1,000×g for 30 minutes, washed twice in phosphate-buffered saline (pH 7.2; PBS), and pelleted at 300×g for 10 minutes. Before infection, the cells were stimulated by phytohemagglutinin (PHA) at a concentration of 16.7 μg/ml, and 4 mM sodium bicarbonate buffer.
Retrovirus: HIV-1 (strain LAV-1) was obtained from Dr. P. Feorino (Centers for Disease Control, Atlanta, Ga.). The virus was propagated in human PBMC using RPMI 1640 medium, as described previously by McDougal, et al., (“Immunoassay for the detection and quantitation of infectious human retrovirus, lymphadenopathy-associated virus (LAV),” J. Immun. Meth. 76, 171-183, 1985) without PBA or fungizone and supplemented with 7% (v/v) interleukin-2 (Advanced Biotechnologies, Silver Spring, Md.), 7 μg/ml DEAE-dextran (Pharmacia, Uppsala, Sweden), and 370 U/ml anti-human leukocyte (alpha) interferon (ICN, Lisle, Ill.). Virus obtained from cell-free culture supernatant was titrated and stored in aliquots at −70° C. until use.
Inhibition of Virus Replication in Human PBMC: Uninfected PHA-stimulated human PBMC were uniformly distributed among 25 cm^2 flasks to give a 5 ml suspension containing about 2×10^6 cells/ml. Suitable dilutions of virus were added to infect the cultures. The mean reverse transcriptase (RT) activity of the inocula was 50,000 dpm/ml corresponding to about 100 TCID50, as determined by Groopman, et al., (1987), “Characterization of Serum Neutralization Response to the Human Immunodeficiency Virus (HIV),” AIDS Res. Human Retro. 3, 71-85. The drugs, at twice their final concentrations in 5 ml of RPMI 1640 medium (supplemented as described above), were added to the cultures. Uninfected and untreated PBMC at equivalent cell densities were grown in parallel as controls. The cultures were maintained in a humidified 5% CO2-95% air incubator at 37° C. for six days after infection at which point all cultures were sampled for supernatant RT activity.
RT Activity Assay: A […] aliquot of supernatant from each culture was clarified of cells at 300×g for 10 minutes. […]
The RT assay was performed in 96-well microtiter plates, as described by Spira, et al. (1987), “Micromethod for Assaying the Reverse Transcriptase of LAV-HTLV-III/Lymphadenopathy-Associated Virus,” J. Clin. Microbiol. […] Four ml of scintillation fluid (Econofluor, NEN Research Products, Boston, Mass.) were added and the amount of radioactivity in each sample was determined using a Packard Tri-Carb liquid scintillation analyzer (model 2,000CA). […]

HSV-1 (F strain) = experiment: HSV plaque reduction assay in Vero cells, HSV-1; conditions: Human alphaherpesvirus 1, Vero, light/dark not stated; read-out: Antiviral Effect: EC50 HSV-1
Method: (§1) HSV Preparation: Confluent HEp-2 cells, in a roller bottle (Falcon, 850 cm^2), were infected at an input multiplicity of 0.01 PFU per cell (to minimize production of defective viruses). During the two-hour absorption period, the cells were exposed to the virus inoculum diluted in absorption buffer (10 ml PBS containing 1% newborn calf serum and 0.1% glucose). The virus inoculum was then removed and replaced with Hanks' Minimum Essential Medium (MEM) containing 2% inactivated newborn calf serum, penicillin (100 U/ml) and streptomycin (100 μg/ml) (P and S), sodium bicarbonate (2 g/L) and HEPES (25 mM) (maintenance medium). The infected cells were incubated at 37° C. for 3 to 4 days, until the cells could be easily shaken from the plastic surface of the culture bottles. The cells were then collected by centrifugation, suspended in a small volume of spent culture fluid (5 ml per 2×10^8 cells) and sonicated 3 times for one min on ice. The disrupted cells were centrifuged (2,000 g for 15 min at 4° C. and the supernatant was diluted with an equal volume of sterile skimmed milk (as stabilizer) and aliquots were frozen at −70° C.
(§2) HSV Plaque Reduction Assay: Near confluent Vero (African Green Monkey) cells in 6-well plates were infected with 100 μl virus diluted in absorption buffer to give 100-200 plaques per well. The plates were then incubated at 37° C. for 1 hour with intermittent rocking every 15 minutes. The inoculum was aspirated and the compounds at different concentrations (dissolved in maintenance medium) were added to replicate wells. For these assays, 0.1% pooled human gamma globulin was included in the media. The plates were placed in 5% CO2-95% air incubator and the plaques were allowed to develop for 48 h prior to fixation (buffered 10% Formalin acetate), staining (0.5% crystal violet in 20% EtOH/H2O) and enumeration. The degree of inhibition (percent plaques of control) was calculated by counting the mean plaque counts for the different drug dilutions. […] For routine antiviral drug screening, we used the F strain of HSV-1 and the G strain of HSV-2 (Ejercito, et al., “Characterization of Herpes Simplex virus Strains Differing in Their Effect on Social Behavior of Infected Cells,” J. Gen. Virol. 2, 357-364 (1968)). […] Acyclovir (ACV) was used as a positive control for the studies on HSV.
(§3) Median-Effect Method: EC50 and IC50 values were obtained by analysis of the data using the median-effect equation (Chou, T., et al., “Quantitative Analysis of Dose-Effect Relationships: The Combined Effects of Multiple Drugs or Enzyme Inhibitors,” Adv. Enz. Regul. 22, 27-55 (1984).

HSV-2 (G strain) = experiment: HSV plaque reduction assay in Vero cells, HSV-2; conditions: Human alphaherpesvirus 2, Vero, light/dark not stated; read-out: Antiviral Effect: EC50 HSV-2
Method: as §1, §2, §3

HIV (LAV-I) = experiment: HIV in human PBMC, P24 levels by EIA
Method: While the previous example measured RT activity, the present example utilizes a direct quantitation of a viral protein (P24) as an indicator of antiviral effectiveness.
Peripheral blood mononuclear (PBM) cells were infected with HIV and treated with methylene blue as described above. The EC50 levels were calculated from enzyme immuno-assay (EIA) measurements of viral coat protein P24. The P24-specific EIA kit was purchased from Abbott Labs.

EC50 (HIV-1 (strain LAV-1)): 0.22 nM | EC50 (HSV-1 (F strain)): > 100000 nM | EC50 (HSV-2 (G strain)): > 100000 nM | EC50 (HIV (LAV-I); Human immunodeficiency virus 1, PBMC, light/dark not stated, read-out: EC50 (P24)): 6.4 nM
SMILES: Cc1cn([C@H]2C[C@H](N=[N+]=[N-])[C@@H](CO)O2)c(=O)[nH]c1=O [AZT, 3′-azido-3′-deoxythymidine]
ng P24/ml (HIV (LAV-I); 0.0001 μM): 360.7 ng P24/ml | ng P24/ml (HIV (LAV-I); 0.001 μM): 266.2 ng P24/ml | ng P24/ml (HIV (LAV-I); 0.01 μM): 36.1 ng P24/ml | ng P24/ml (HIV (LAV-I); 0.1 μM): 5.2 ng P24/ml | inhibition at 0.0001 µM (HIV (LAV-I); Human immunodeficiency virus 1, PBMC, 0.0001 μM, read-out: % Inhibition (corrected)): -0.5% | inhibition at 0.001 µM (HIV (LAV-I); Human immunodeficiency virus 1, PBMC, 0.001 μM, read-out: % Inhibition (corrected)): 25.8% | inhibition at 0.01 µM (HIV (LAV-I); Human immunodeficiency virus 1, PBMC, 0.01 μM, read-out: % Inhibition (corrected)): 89.9% | inhibition at 0.1 µM (HIV (LAV-I); Human immunodeficiency virus 1, PBMC, 0.1 μM, read-out: % Inhibition (corrected)): 98.5%
